Assays:
Assay in all cases: relative viability (nuclei count vs DMSO), 5 days (fraction); higher = more cells survive
4EGI-1 + Phenformin = compound: O=C(O)C(Cc1ccccc1[N+](=O)[O-])=NNc1nc(-c2ccc(Cl)c(Cl)c2)cs1 (mixture of isomers) [4EGI-1] + N=C(N)NC(=N)NCCc1ccccc1 [Phenformin] (partner 250 µM)
Summary of the method: (§1)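 Nuclei were stained with Hoechst during a one-step fixation (final 0.05% Triton X-100, 1% formaldehyde, 1 ug/ml Hoechst) carried out 5 days after dosing, then counted on 4× images. The cells, lung cancer lines in 1536-well plates, had been dosed by pin tool the day after seeding with one drug alone or a fixed anchor-drug dose plus five library-drug doses (not always all listed) in √10 steps. Relative viability is the nuclei count in treated wells divided by that in vehicle wells, and each value is the median of duplicate plates.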

XMD8-85 + Palbociclib = compound: CN1CCN(CC1)C2=CC(=C(C=C2)NC3=NC=C4C(=N3)N(C5=CC=CC=C5C(=O)N4C)C)OC [XMD8-85] + CC(=O)c1c(C)c2cnc(Nc3ccc(N4CCNCC4)cn3)nc2n(C2CCCC2)c1=O [Palbociclib] (partner 0.5 µM)
Summary of the method: as §1

4EGI-1 + Alpelisib = compound: O=C(O)C(Cc1ccccc1[N+](=O)[O-])=NNc1nc(-c2ccc(Cl)c(Cl)c2)cs1 (mixture of isomers) [4EGI-1] + Cc1nc(NC(=O)N2CCC[C@H]2C(N)=O)sc1-c1ccnc(C(C)(C)C(F)(F)F)c1 [Alpelisib] (partner 2 µM)
Summary of the method: as §1

4EGI-1 + Dasatinib = compound: O=C(O)C(Cc1ccccc1[N+](=O)[O-])=NNc1nc(-c2ccc(Cl)c(Cl)c2)cs1 (mixture of isomers) [4EGI-1] + Cc1nc(Nc2ncc(C(=O)Nc3c(C)cccc3Cl)s2)cc(N2CCN(CCO)CC2)n1 [Dasatinib] (partner 0.075 µM)
Summary of the method: as §1

Cell Line: NCI-H1792
- relative viability (4EGI-1 + Phenformin; first compound 0.5 µM): 0.285
- relative viability (4EGI-1 + Phenformin; first compound 1.581 µM): 0.462
- relative viability (4EGI-1 + Phenformin; first compound 5 µM): 0.41
- relative viability (4EGI-1 + Phenformin; first compound 15.81 µM): 0.322
- relative viability (4EGI-1 + Phenformin; first compound 50 µM): 0.378
- relative viability (XMD8-85 + Palbociclib; first compound 0.253 µM): 0.642
- relative viability (XMD8-85 + Palbociclib; first compound 2.53 µM): 0.835
- relative viability (XMD8-85 + Palbociclib; first compound 8 µM): 0.551
- relative viability (4EGI-1 + Alpelisib; first compound 0.5 µM): 0.765
- relative viability (4EGI-1 + Alpelisib; first compound 1.581 µM): 0.684
- relative viability (4EGI-1 + Alpelisib; first compound 5 µM): 0.667
- relative viability (4EGI-1 + Alpelisib; first compound 15.81 µM): 0.533
- relative viability (4EGI-1 + Alpelisib; first compound 50 µM): 0.469
- relative viability (4EGI-1 + Dasatinib; first compound 0.5 µM): 1.03
- relative viability (4EGI-1 + Dasatinib; first compound 1.581 µM): 0.797
- relative viability (4EGI-1 + Dasatinib; first compound 5 µM): 0.74
- relative viability (4EGI-1 + Dasatinib; first compound 15.81 µM): 0.712
- relative viability (4EGI-1 + Dasatinib; first compound 50 µM): 0.671
